{"source": "paper PMC7556730", "about": "(Chemico-biological interactions, 2020)", "key": {"microsomal CESs": {"test_system": "microsomal CESs", "assay": "Microsomal inhibition study with the CES inhibitor benzil", "type": "in vitro ADME, Sprague Dawley rats"}, "[1]": {"test_system": "microsomal carboxylesterases (CESs) in rat liver microsomes", "assay": "Incubations of active microsomes without NADPH", "type": "in vitro ADME, Sprague Dawley rats"}, "[2]": {"test_system": "microsomal carboxylesterases (CESs)", "assay": "Incubations of active microsomes without NADPH", "type": "in vitro ADME, Sprague Dawley rats", "conditions": "male, Sprague-Dawley, rat, liver microsomes"}, "[3]": {"test_system": "glutathione S-transferases (GSTs) in rat liver cytosol", "assay": "Cytosolic incubations with benoxacor in the presence of GSH", "type": "in vitro ADME, Sprague Dawley rats", "conditions": "for percentage of benoxacor remaining: 1 mg/mL protein, 5 mM GSH, 5 μM benoxacor"}, "[4]": {"test_system": "glutathione S-transferases (GSTs)", "assay": "Cytosolic incubations with benoxacor in the presence of GSH", "type": "in vitro ADME, Sprague Dawley rats", "conditions": "Sprague-Dawley, rat, liver cytosol"}, "[5]": {"conditions": "cited from earlier work"}, "cytosolic GSTs": {"test_system": "cytosolic GSTs", "assay": "Cytosolic inhibition study with the GST inhibitor ethacrynic acid", "type": "in vitro ADME, Sprague Dawley rats", "conditions": "for benoxacor depletion in control incubations: ethacrynic acid controls; for percent of benoxacor remaining: 5 minutes"}, "[6]": {"test_system": "cytochrome P450 enzymes (CYPs)", "assay": "Microsomal incubations with benoxacor in the presence of NADPH", "type": "in vitro ADME, Sprague Dawley rats", "conditions": "Sprague-Dawley, rat, liver microsomes"}, "[7]": {"test_system": "hepatic cytochrome P450 enzymes (CYPs) in rat liver microsomes", "assay": "Microsomal incubations with benoxacor in the presence of NADPH", "type": "in vitro ADME, Sprague Dawley rats", "conditions": "for percentage of benoxacor remaining: 0.1 mg/mL protein, 0.5 mM NADPH, 5 μM benoxacor"}}, "note": "Values joined by “and” are separate entries in the source; they are usually repeats but may differ in a detail not shown here. Identical values can stand only once. Marks after values point to notes of the source that are not given here.", "data": [{"compound": "CC1COc2ccccc2N1C(=O)C(Cl)Cl", "note": "(stereo not shown) [benoxacor, Benoxacor]", "values": [{"measurement": "benoxacor depletion in control incubations", "setting": "microsomal CESs; benzil controls, 5, 50 and 500 nM", "result": "100±1", "unit": "%"}, {"measurement": "depletion of benoxacor in the presence of benzil", "setting": "microsomal CESs; male rat liver microsomes without NADPH, 30 minutes, benzil 5 to 500 nM", "result": "not depleted"}, {"measurement": "percent of benoxacor remaining", "setting": "microsomal CESs; male rat liver microsomes without NADPH, 30 minutes, without benzil", "result": "92±2", "unit": "%"}, {"measurement": "enantiomeric fraction (EF)", "setting": "[1]; active female rat microsomes without NADPH, 30 minutes", "result": 0.47}, {"measurement": "enantiomeric fraction (EF)", "setting": "[1]; active female rat microsomes without NADPH, initial value", "result": 0.48}, {"measurement": "enantiomeric fraction (EF)", "setting": "[1]; active male rat microsomes without NADPH, initial value", "result": 0.48}, {"measurement": "CES Scaled CLint", "setting": "[1]; male rat", "result": 6.74, "unit": "mL/min/g liver"}, {"measurement": "microsomal CLint", "setting": "[2]", "result": 150, "unit": "µL/min/mg"}, {"measurement": "enantiomeric fraction (EF)", "setting": "[3]; female rat liver cytosol with GSH, 30 minutes", "result": "0.54±0.01"}, {"measurement": "enantiomeric fraction (EF)", "setting": "[3]; female rat liver cytosol with GSH, start of 30-minute time-course", "result": 0.48}, {"measurement": "percentage of benoxacor remaining", "setting": "[3]; female rat liver cytosol, 30 minutes", "result": "18±2", "unit": "%"}, {"measurement": "GST Scaled CLint", "setting": "[3]; female rat, significantly different from male (p = 0.0038)", "result": "25.87^a mL/min/g liver"}, {"measurement": "GST Scaled CLint", "setting": "[3]; male rat", "result": 40.18, "unit": "mL/min/g liver"}, {"measurement": "enantiomeric fraction (EF)", "setting": "[3]; male rat liver cytosol with GSH, 30 minutes", "result": "0.43±0.01 and 0.43"}, {"measurement": "enantiomeric fraction (EF)", "setting": "[3]; male rat liver cytosol with GSH, start of 30-minute time-course", "result": 0.47}, {"measurement": "percentage of benoxacor remaining", "setting": "[3]; male rat liver cytosol, 30 minutes", "result": "9±2", "unit": "%"}, {"measurement": "microsomal CLint", "setting": "[4]; female", "result": 280, "unit": "µL/min/mg"}, {"measurement": "microsomal CLint", "setting": "[4]; male", "result": 440, "unit": "µL/min/mg"}, {"measurement": "experimental solubility", "setting": "[5]", "result": "22 ± 1.7", "unit": "µg/mL"}, {"measurement": "benoxacor depletion in control incubations", "setting": "cytosolic GSTs; 10 μM", "result": "100±1", "unit": "%"}, {"measurement": "benoxacor depletion in control incubations", "setting": "cytosolic GSTs; 100 μM", "result": "102±1", "unit": "%"}, {"measurement": "benoxacor depletion in control incubations", "setting": "cytosolic GSTs; 1000 μM", "result": "100±1", "unit": "%"}, {"measurement": "percent of benoxacor remaining", "setting": "cytosolic GSTs; female rat cytosol with GSH, 1000 μM ethacrynic acid", "result": "98±2", "unit": "%"}, {"measurement": "percent of benoxacor remaining", "setting": "cytosolic GSTs; female rat cytosol with GSH, without inhibitor", "result": "71±3", "unit": "%"}, {"measurement": "percent of benoxacor remaining", "setting": "cytosolic GSTs; male rat preparations with GSH, with ethacrynic acid", "result": "96±2", "unit": "%"}, {"measurement": "percent of benoxacor remaining", "setting": "cytosolic GSTs; male rat preparations with GSH, without inhibitor", "result": "64±1", "unit": "%"}, {"measurement": "microsomal CLint", "setting": "[6]; female", "result": 1280, "unit": "µL/min/mg"}, {"measurement": "microsomal CLint", "setting": "[6]; male", "result": 1110, "unit": "µL/min/mg"}, {"measurement": "CYP Scaled CLint", "setting": "[7]; female rat", "result": 57.80, "unit": "mL/min/g liver"}, {"measurement": "enantiomeric fraction (EF = A1/(A1+A2))", "setting": "[7]; female rat liver microsomes with NADPH, 30 minutes", "result": "0.67±0.01 and 0.67"}, {"measurement": "enantiomeric fraction (EF = A1/(A1+A2))", "setting": "[7]; female rat liver microsomes with NADPH, start of 30-minute time-course", "result": 0.48}, {"measurement": "percentage of benoxacor remaining", "setting": "[7]; female rat liver microsomes, 30 minutes", "result": "48±1", "unit": "%"}, {"measurement": "CYP Scaled CLint", "setting": "[7]; male rat", "result": 50.13, "unit": "mL/min/g liver"}, {"measurement": "enantiomeric fraction (EF = A1/(A1+A2))", "setting": "[7]; male rat liver microsomes with NADPH, 30 minutes", "result": "0.60±0.01 and 0.60"}, {"measurement": "enantiomeric fraction (EF = A1/(A1+A2))", "setting": "[7]; male rat liver microsomes with NADPH, start of 30-minute time-course", "result": 0.48}, {"measurement": "percentage of benoxacor remaining", "setting": "[7]; male rat liver microsomes, 30 minutes", "result": "45±1", "unit": "%"}]}, {"compound": "O=C(C(=O)c1ccccc1)c1ccccc1", "note": "[benzil, Benzil, reference compound]", "values": [{"measurement": "inhibition of the loss of benoxacor by the CES inhibitor", "setting": "microsomal CESs; male rat liver microsomes without NADPH, 30 minutes, 5, 50, 500 nM", "result": "significantly inhibited"}]}]}
